Test results published in patent US20210254272A1, “TEXTILES HAVING ANTIMICROBIAL PROPERTIES” (Livinguard AG, priority 2015, published 2021).

Tested on: E. coli (ATCC 25922)
Experiment: AATCC Test Method 100-2012 antibacterial activity of the treated textile, after 25 washes and 12 abrasion cycles, contact time 60 minutes
Type: cell-based
Settings: for Log reduction of antimicrobial performance: 1% o.w.f; for Log reduction of antimicrobial performance in 100 GSM cotton fabric / Log reduction of antimicrobial performance in 300 GSM cotton fabric: 2 min
Protocol: The antibacterial activity of the textile was tested in accordance with AATCC Test Method 100-2012. Prior to the test, the fabric was cut into coupons of 2×4 inches and washed separately 25 times, and exposed to 12 abrasion cycles, as per US EPA protocol 90072PA4 (described further below). The tests were made against E. coli (ATCC 25922). Contact time was 60 minutes, after inoculating with 10^8 CFU per coupon.

[1] = exhaust 80° C., 60 min, curing 180° C., dosage 0.1% o.w.f
[2] = exhaust 80° C., 60 min, curing 180° C., dosage 0.2% o.w.f
[3] = exhaust 80° C., 60 min, curing 180° C., dosage 0.5% o.w.f
[4] = exhaust 80° C., 60 min, curing 180° C., dosage 0.8% o.w.f
[5] = exhaust 80° C., 60 min, curing 180° C., dosage 1.0% o.w.f

With polyglucosamine [chitosan] the “Log reduction of antimicrobial performance of each active ingredient” value (from here on “Log reduction … of each active ingredient”) (exhaust 60° C., solution dosage 1% o.w.f, process time 60 min) was 1.4 Log, the “Log reduction … of each active ingredient” value (exhaust 60° C., solution dosage 1% o.w.f, process time 90 min) was 1.5 Log and the “Log reduction … of each active ingredient” value (exhaust 60° C., solution dosage 1% o.w.f, process time 120 min) was 1.6 Log. The “Log reduction … of each active ingredient” value (exhaust 60° C., solution dosage 1% o.w.f, process time 180 min) was 1.7 Log, the “Log reduction … of each active ingredient” value (exhaust 60° C., solution dosage 1% o.w.f, process time 240 min) was 1.65 Log and the “Log reduction of antimicrobial performance” value (exhaust 80° C., 60 min, curing 170° C., curing dwell time 0.5 min) was 0.3 Log. For the same substance, the “Log reduction of antimicrobial performance” value (exhaust 80° C., 60 min, curing 170° C., curing dwell time 1.0 min) was 0.7 Log, the “Log reduction of antimicrobial performance” value (exhaust 80° C., 60 min, curing 170° C., curing dwell time 1.5 min) was 0.7 Log and the “Log reduction of antimicrobial performance” value (exhaust 80° C., 60 min, curing 170° C., curing dwell time 2.0 min) was 1.4 Log. The “Log reduction of antimicrobial performance” value (exhaust 80° C., 60 min, curing 170° C., curing dwell time 2.5 min) was 1.3 Log, the “Log reduction of antimicrobial performance” value (exhaust 80° C., 60 min, curing 170° C., curing dwell time 3.0 min) was 0.64 Log and the “Log reduction of antimicrobial performance” value (exhaust 80° C., 60 min, curing 180° C., curing dwell time 0.5 min) was 1.4 Log. For the same substance, the “Log reduction of antimicrobial performance” value (exhaust 80° C., 60 min, curing 180° C., curing dwell time 1.0 min) was 1.5 Log, the “Log reduction of antimicrobial performance” value (exhaust 80° C., 60 min, curing 180° C., curing dwell time 1.5 min) was 1.6 Log and the “Log reduction of antimicrobial performance” value (exhaust 80° C., 60 min, curing 180° C., curing dwell time 2.0 min) was 3.5 Log. The “Log reduction of antimicrobial performance” value (exhaust 80° C., 60 min, curing 180° C., curing dwell time 2.5 min) was 3.5 Log, the “Log reduction of antimicrobial performance” value (exhaust 80° C., 60 min, curing 180° C., curing dwell time 3.0 min) was 3.4 Log and the “Log reduction of antimicrobial performance” value (exhaust 80° C., 60 min, curing 190° C., curing dwell time 0.5 min) was 0.3 Log. The “Log reduction of antimicrobial performance” value (exhaust 80° C., 60 min, curing 190° C., curing dwell time 1.0 min) was 1.2 Log, the “Log reduction of antimicrobial performance” value (exhaust 80° C., 60 min, curing 190° C., curing dwell time 1.5 min) was 1.4 Log and the “Log reduction of antimicrobial performance” value (exhaust 80° C., 60 min, curing 190° C., curing dwell time 2.0 min) was 2.66 Log. For the same substance, the “Log reduction of antimicrobial performance” value (exhaust 80° C., 60 min, curing 190° C., curing dwell time 2.5 min) was 2.31 Log, the “Log reduction of antimicrobial performance” value (exhaust 80° C., 60 min, curing 190° C., curing dwell time 3.0 min) was 1.3 Log and the “Log reduction of antimicrobial performance” value (exhaust 80° C., 60 min, curing temperature 100 ° C.) was 0.16 Log. For the same substance, the “Log reduction of antimicrobial performance” value (exhaust 80° C., 60 min, curing temperature 120 ° C.) was 0.23 Log, the “Log reduction of antimicrobial performance” value (exhaust 80° C., 60 min, curing temperature 140 ° C.) was 0.88 Log and the “Log reduction of antimicrobial performance” value (exhaust 80° C., 60 min, curing temperature 160 ° C.) was 1.34 Log. The “Log reduction of antimicrobial performance” value (exhaust 80° C., 60 min, curing temperature 165 ° C.) was 1.38 Log, the “Log reduction of antimicrobial performance” value (exhaust 80° C., 60 min, curing temperature 170 ° C.) was 1.48 Log and the “Log reduction of antimicrobial performance” value (exhaust 80° C., 60 min, curing temperature 175 ° C.) was 2.41 Log. The “Log reduction of antimicrobial performance” value (exhaust 80° C., 60 min, curing temperature 180 ° C.) was 2.67 Log, the “Log reduction of antimicrobial performance” value (exhaust 80° C., 60 min, curing temperature 185 ° C.) was 2.68 Log and the “Log reduction of antimicrobial performance” value (exhaust 80° C., 60 min, curing temperature 190 ° C.) was 2.69 Log. The “Log reduction of antimicrobial performance” value (exhaust 80° C., 60 min, curing temperature 195 ° C.) was 2.71 Log, the “Log reduction of antimicrobial performance in 100 GSM cotton fabric” value (“Log reduction … in 100 GSM cotton fabric” below) [1] was 0.63 Log and the “Log reduction of antimicrobial performance in 300 GSM cotton fabric” value (from here on “Log reduction … in 300 GSM cotton fabric”) [1] was 0.65 Log. The “Log reduction … in 100 GSM cotton fabric” value [2] was 1.37 Log, the “Log reduction … in 300 GSM cotton fabric” value [2] was 1.38 Log and the “Log reduction … in 100 GSM cotton fabric” value [3] was 1.91 Log. The “Log reduction … in 300 GSM cotton fabric” value [3] was 1.91 Log, the “Log reduction … in 100 GSM cotton fabric” value [4] was 2.21 Log and the “Log reduction … in 300 GSM cotton fabric” value [4] was 2.21 Log. For the same substance, the “Log reduction … in 100 GSM cotton fabric” value [5] was 2.71 Log, the “Log reduction … in 300 GSM cotton fabric” value [5] was 2.72 Log and the “Log reduction … of each active ingredient” value (exhaust 80° C., 60 min, dosage 1% o.w.f (test up to 5% o.w.f)) was 2.45 Log. The “Log reduction … of each active ingredient” value (exhaust 80° C., 60 min, dosage 2% o.w.f) was 2.46 Log, the “Log reduction … of each active ingredient” value (exhaust 80° C., 60 min, dosage 3% o.w.f) was 2.47 Log and the “Log reduction … of each active ingredient” value (exhaust 80° C., 60 min, dosage 4% o.w.f) was 2.47 Log. The “Log reduction … of each active ingredient” value (exhaust 80° C., 60 min, dosage 5% o.w.f) was 2.47 Log, the “Log reduction … of each active ingredient” value (exhaust 80 ° C., solution dosage 1% o.w.f, process time 10 min) was 0.67 Log and the “Log reduction … of each active ingredient” value (exhaust 80 ° C., solution dosage 1% o.w.f, process time 20 min) was 1.13 Log. The “Log reduction … of each active ingredient” value (exhaust 80 ° C., solution dosage 1% o.w.f, process time 30 min) was 1.43 Log, the “Log reduction … of each active ingredient” value (exhaust 80 ° C., solution dosage 1% o.w.f, process time 40 min) was 1.73 Log and the “Log reduction … of each active ingredient” value (exhaust 80 ° C., solution dosage 1% o.w.f, process time 50 min) was 2.45 Log. The “Log reduction … of each active ingredient” value (exhaust 80 ° C., solution dosage 1% o.w.f, process time 60 min) was 2.67 Log, the “Log reduction … of each active ingredient” value (exhaust 80 ° C., solution dosage 1% o.w.f, process time 70 min) was 2.68 Log and the “Log reduction … of each active ingredient” value (exhaust 80 ° C., solution dosage 1% o.w.f, process time 80 min) was 2.72 Log.
